These results are taken from US11524962B2, “Substituted pyrrolo[2,3-d]pyrimidines as inhibitors of protein arginine methyl transferase 5 (PRMT5)” (PRELUDE THERAPEUTICS, INCORPORATED, priority 2017, dated 2022).

Molecules are shown by their SMILES.

Data set [1] deals with Granta-519 mouse xenograft. Kind of data set: Tumor growth inhibition in Granta-519 mouse xenograft model. Format: in vivo. How it is done:
Granta-519 cells was maintained in DMEM medium supplemented with 10% fetal bovine serum and 2 mM L-Glutamine at 37° C. in an atmosphere of 5% CO2 in air. Cells in exponential growth phase were harvested and 1×10^7 cells in 0.1 mL of PBS with Matrigel (1:1) were injected subcutaneously at the right lower flank region of each mouse for tumor development. The treatments were started when the mean tumor size reaches approximately 300-400 mm^3. […] Example 1 or vehicle (0.5% Na CMC+0.5% Tween80, suspension) were administered orally (BID or QD for Example 1, QD for vehicle) at a dose of 25 mg/kg BID and 50 mg/kg QD for 16 and 20 days, respectively. Body weights and tumor size were measured every 3 to 4 days after randomization. Animals were euthanized 12 hours after last dosing, and blood and tumor samples were collected for analysis.

For data set [2], the system named is U87MG-luc3 human glioblastoma cells. Kind of data set: Tumor growth inhibition in U87 MG mouse orthotopic model. Format: in vivo. As to conditions: for tumor growth inhibition: day 29. How it is done: U87MG-luc3 human glioblastoma cells were grown to mid-log phase in Eagle's Minimum Essential Medium containing 10% fetal bovine serum, 2 mM glutamine, 1× non-essential amino acids, 0.075% sodium bicarbonate, 1 mM sodium pyruvate, 100 units/mL sodium penicillin G, g/mL gentamicin, and 100 μg/mL streptomycin sulfate. The tumor cells were cultured in tissue culture flasks in a humidified incubator at 37° C., in an atmosphere of 5% CO2 and 95% air. Cells were cultured in 2 μg/mL puromycin until the second to last passage before implant, grown to mid-log phase and harvested. Post-implant verification of luciferase-expressing cells was performed by maintaining cells in culture for three passages after implant to ensure stable doubling time. Limiting dilution was used to verify and quantitate light production in the presence of luciferin. Cells were harvested at mid-log phase and resuspended at a concentration of 1×10^8 cells/mL in PBS. Each mouse (Female athymic nude mice (Crl:NU(NCr)-Foxn1nu, Charles River)) received an intracranial injection of 1×10^6 U87MG-luc3 cells (0.01 mL cell suspension) and tumor growth was monitored through whole body bioluminescent imaging. Four days post cell implant, designated as Day 1 of the study, the animals were sorted into five groups based on flux values before treatment starts. Ex. 11 or vehicle (0.5% Na CMC+0.5% Tween80) was administered orally BID. Ex. 11 was dosed at 10, 20 mg/kg BID and 50 mg/kg BID, 7-day on/7-day off for 22 days. Animals were continued to be observed to obtain overall survival data.
In Vivo bioluminescence images (dorsal) were captured to monitor tumor progression. Luciferase activity was measured in live animals using IVIS SpectrumCT (Perkin Elmer, Mass.) equipped with a CCD camera (cooled at −90° C.), mounted on a light-tight specimen chamber. Regions of interest were drawn around each mouse image, and flux was quantified and reported as 10^6 photons per second (p/s). For overall survival, animals were monitored individually to an endpoint of moribundity due to progression of systemic lymphoma. Full hind limb paralysis, severe ocular proptosis or moribundity all called for euthanasia.

The mark [3] stands for this setting: 50 mg/kg BID oral, 7-day on/7-day off.

With `C[C@@](O)(c1ccc2c(c1)CC2)[C@H]1O[C@@H](n2ccc3c(N)ncnc32)[C@H](O)[C@@H]1O` [Example 1, (2R,3R,4S,5S)-2-(4-amino-7H-pyrrolo[2,3-d]pyrimidin-7-yl)-5-((R)-1-(bicyclo[4.2.0]octa-1(6),2,4-trien-3-yl)-1-hydroxyethyl)tetrahydrofuran-3,4-diol], in data set [1] (25 mg/kg BID oral, 16 days), the body weight loss is reported as 6.75% and the tumor growth inhibition turned out to be 76.7%. For the same compound, in data set [1] (50 mg/kg QD oral, 20 days), the body weight gain came to 10.1% and the tumor growth inhibition is 5.8%.
`Cc1ncnc2c1ccn2[C@@H]1O[C@H]([C@H](O)c2ccc3c(c2)CC3)[C@@H](O)[C@H]1O` [Example 11, (2R,3S,4R,5R)-2-((R)-bicyclo[4.2.0]octa-1(6),2,4-trien-3-yl(hydroxy)methyl)-5-(4-methyl-7H-pyrrolo[2,3-d]pyrimidin-7-yl)tetrahydrofuran-3,4-diol]: the median survival was 41 days in data set [2] (10 mg/kg BID oral), 37.5 days in data set [2] (20 mg/kg BID oral) and 39 days in data set [2] (setting [3]). For the same compound, the tumor growth inhibition was 10% in data set [2] (10 mg/kg BID oral), 61% in data set [2] (20 mg/kg BID oral) and 85% in data set [2] (setting [3]).
